Patent US12453782B2, “Antibody-oligonucleotide conjugate” (priority 2018, dated 2025)

Tests used:
HeLa cells = experiment: Co-administration of PAMAM, dendron or chloroquine with dianthin-EGF and SO1861 on HeLa cells (inhibition of endosomal escape, cell viability); format: cell-based, human; settings: 500 nM PAMAM, PAMAM derivatives or chloroquine, 667 nM dendron, various SO1861 concentrations
Text: As control for the inhibition of endosomal acidification chloroquine was used.

[1] = tested on: SK-BR-3, JIMT-1, MDA-MB-468, A431, CaSki, HeLa, A2058; experiment: Control treatments, relative cell viability on various cancer cell lines (Example 4, FIG. 8); format: cell-based, human; settings: wide range of toxin concentrations, up to 100.000 pM
Method: After treatment the cells were incubated for 72 hr at 37° C. before the cell viability was determined by a MTS-assay, performed according to the manufacturer's instruction (CellTiter 96® AQueous One Solution Cell Proliferation Assay, Promega). Briefly, the MTS solution was diluted 20× in DMEM without phenol red (PAN-Biotech GmbH) supplemented with 10% FBS (PAN-Biotech GmbH). The cells were washed once with 200 μL PBS per well, after which 100 μL diluted MTS solution was added per well. The plate was incubated for approximately 20-30 minutes at 37° C. Subsequently, the optical density at 492 nm was measured on a Thermo Scientific Multiskan FC plate reader (Thermo Scientific). For quantification the background signal of ‘medium only’ wells was subtracted from all other wells, before the ratio of untreated/treated cells was calculated, by dividing the background corrected signal of untreated wells over the background corrected signal of the treated wells.

[2] = pH dependent hydrolysis of the hydrazone bond of SO1861-EMCH (MALDI-TOF-MS); format: physicochemical; settings: HCl solution at pH 3, two points in time
[3] = newly diagnosed glioblastoma (ABT-414); platinum-resistant ovarian cancer (IMGN853); cited from earlier work
[4] = tested on: HER14 cells (fibroblasts stably transfected with the human epidermal growth factor receptor); experiment: Viability assay (MTT) with HER14 cells, dianthin-EGF, SA1641 and polymeric structure (Example 11); format: cell-based; settings: 72 h
Method: To test the efficacy of the invention, we conducted a viability assay with HER14 cells. These cells are fibroblasts stably transfected with the human epidermal growth factor receptor and therefore target cells for the targeted toxin dianthin-EGF. HER14 cells (2,000 cells/100 μL/well) were seeded into wells of 96-well-cell culture plates and incubated for 24 h in DMEM medium supplemented with 10% fetal calf serum and 1% penicillin/streptomycin at 37° C., 5% CO2 and 98% humidity. The different test substances (see results and FIG. 21) were then added in triplicates in a volume of 25 μL and supplemented with further 25 μL of medium. After an incubation of 72 h, 30 μL 3-(4,5-dimethylthiazol-2-yl)-2,5-diphenyltetrazolium bromide (0.5 mg/mL in water) was added per well and incubated for 2 h. Thereafter, the medium was carefully removed and replaced by an aqueous solution containing 10% (v/v) isopropanol, 5% (w/v) sodium dodecyl sulfate and 400 mM HCl, and incubated for 5 min. Solubilized formazan was photometrically quantitated at […] in a microplate reader (Spectra MAX 340 PC, Molecular Devices, Sunnyvale, CA, USA). Untreated cells were normalized to 1 and all samples referred to the untreated control. Significance was determined by unpaired two-sample t-tests.

**Q.** With `CCN(CC)CCCC(C)Nc1ccnc2cc(Cl)ccc12` (stereo not drawn) [chloroquine] as the compound, how does the “effect on SO1861-mediated endosomal escape of the targeted toxin (dianthin-EGF) and cell killing” value (HeLa cells) read?
**A.** Its value is “inhibit the SO1861-mediated endosomal escape of the targeted toxin and subsequent cell killing”.

**Q.** For saporin, which “influence on cell viability” value [1] is on record?
**A.** Its value is “do not or hardly have any influence on cell viability”.

**Q.** For `CC(=O)OC1C(C)OC(OC2C(C)OC(OC(=O)[C@]34CCC(C)(C)CC3C3=CCC5[C@@]6(C)CC[C@H](OC7OC(C(=O)O)C(O)C(OC8OCC(O)C(O)C8O)C7OC7OC(CO)C(O)C(O)C7O)[C@@](C)(/C=N/NC(=O)CCCCCN7C(=O)C=CC7=O)C6CC[C@@]5(C)[C@]3(C)C[C@H]4O)C(OC3OC(C)C(OC4OCC(O)C(OC5OC(CO)C(O)C(O)C5O)C4O)C(O)C3O)C2O)C(O)C1OC1OCC(O)C(O)C1O` (stereo partly drawn) [SO1861-EMCH], which “hydrolysis of the hydrazone bond” value [2] is on record?
**A.** Its value is “responsive towards hydrolysis and gets cleaved”.

**Q.** Which “survival benefit in phase 3 trials” value [3] does the source give for “mirvetuximab soravtansine: folate receptor alpha targeted ADC, ImmunoGen” here?
**A.** The value was “no survival benefit”.

**Q.** Which “effect on cells of 0.1 nM dianthin-EGF in the presence of SA1641” value [4] does the source give for `C[C@@H]1O[C@@H](O[C@H]2[C@H](OC(=O)[C@]34CCC(C)(C)C[C@H]3C3=CC[C@@H]5[C@@]6(C)CC[C@H](O[C@H]7O[C@H](C(=O)O)[C@@H](O)[C@H](O[C@@H]8OC[C@@H](O)[C@H](O)[C@H]8O)[C@H]7O[C@@H]7O[C@H](CO)[C@H](O)[C@H](O)[C@H]7O)[C@@](C)(C=O)[C@@H]6CC[C@@]5(C)[C@]3(C)CC4)O[C@H](C)[C@H](O[C@@H]3O[C@H](C)[C@@H](O)[C@H](O)[C@H]3O)[C@@H]2O)[C@H](O)[C@H](O)[C@H]1O[C@@H]1OC[C@@H](O)[C@H](O[C@@H]2OC[C@@H](O)[C@H](O)[C@H]2O)[C@H]1O` [SA1641] here?
**A.** The value was “death of all cells”.

**Q.** With “depatuxizumab mafodotin: EGFR targeted ADC, AbbVie” as the compound, how does the “survival benefit in phase 3 trials” value [3] read?
**A.** The value was “no survival benefit”.
